Source: patent US9957253B2, “Triaminopyrimidine compounds useful for preventing or treating malaria” (MMV MEDICINES FOR MALARIA VENTURE, priority 2014, dated 2018)

What was measured:
[1] = tested on: parasite; assay: In vitro parasite reduction ratio (PRR) assay; assay type: cell-based; conditions: after 48 hours of exposure
Protocol: When tested in an in vitro parasite reduction ratio (PRR) assay (Le Manach, et al., 2013, Malar J., […], 424-430), Example 13 produced a >4-log kill after 48 hours of exposure, an effect similar to chloroquine in the same assay.

[2] = tested on: Pf parasites; assay: Pf/SCID model efficacy; assay type: in vivo, P. falciparum; conditions: oral
Protocol: Blood Cmin (0.04 μM) observed at this dose was considered the minimum parasiticidal concentration (MPC) for the human dose prediction.

[3] = Conversion of Example 13 to the active metabolite in liver microsomes, species comparison; assay type: in vitro ADME, mouse, rat, human; conditions: rank order of species
Protocol: (§1) Metabolites of Example 13 were identified both in vitro and in vivo using the following models: • In vitro: The compound of Example 13 was incubated with human (HLM) or rat (RLM) liver microsomes (1 mg/ml protein concentration in 100 mM phosphate buffer, pH 7.4) at a final concentration of 10 μM in the presence of 2 mM NADPH. The reactive intermediates were trapped by including 2 mM glutathione (GSH) or N-acetyl cysteine (NAC) in the reaction mix. • In vivo in bile duct cannulated rats: Example 13 was administered intravenously (IV) as a bolus through the jugular vein at a dose of 2 mg/kg or 4 mg/kg of body weight for control (n=3) or BDC rats (n=2), respectively. Blood samples were collected at 0.083, 0.25, 0.5, 1, 2, 4, 6, 8 and 24 h through the carotid artery, bile samples were collected at 0-2 h, 2-4 h, 4-6 h, 6-8 h and 8-24 h intervals and urine samples were collected at 0-8 h and 8-24 h intervals. The bile and urine samples were analyzed for the presence of parent and metabolites and blood samples were analyzed for the presence of parent.
These studies supported the fact that the compound of Example 2 is an active metabolite of the compound of Example 13 and is formed both in vitro and in vivo.

[4] = Reactive intermediate trapping with GSH or NAC in liver microsomes; assay type: in vitro ADME, human, rat; conditions: 10 μM, 2 mM GSH or NAC
Protocol: as §1

## Cc1nc(Nc2ncc(N3CCN(C)[C@H](C)C3)c(Nc3cc(C)n(C)n3)n2)cc(C2CC2)c1F [Example 13, (R)—N2-(4-cyclopropyl-5-fluoro-6-methylpyridin-2-yl)-N4-(1,5-dimethyl-1H-pyrazol-3-yl)-5-(3,4-dimethylpiperazin-1-yl)pyrimidine-2,4-diamine]
[1]
  log kill in parasite reduction ratio (PRR) assay: > 4 log
[2]
  Dose at which maximum kill rate was observed: 40 mg/kg
[3]
  Percent conversion to the active metabolite (Example 2): highest in mouse, followed by rat and then human liver microsomes
[4]
  GSH or NAC adduct (reactive metabolite) formation: no GSH or NAC adduct formation
